Results as given in patent publication US20040176317A1, “Functionalised maltosyl fluoride as glycosyl donor in the chemo-enzymatic preparation of ratio of oligo-or polysaccharides” (priority 2001, published 2004).

Assay: Storage stability of the lyophilized fluoride
Type: physicochemical
Conditions: for stability of the fluoride: at −18° C. in the lyophilized form
Procedure: This fluoride is stable at −18° C. in the lyophilized form.

first decomposition compound	stability of the fluoride	SMILES
α-maltosyl fluoride	stable	OCC1O[C@H](O[C@@H]2C(CO)O[C@H](F)C(O)C2O)C(O)C(O)[C@@H]1OC1CCCCO1 (stereo partly drawn) [Example 1e, 4-0-tetrahydropyranyl-α-D-glucopyran-osyl-(1→4)-α-D-glucopyranosyl fluoride]
	stable	OC[C@H]1O[C@H](F)[C@H](O)[C@@H](O)[C@@H]1O[C@H]1O[C@H](CBr)[C@@H](OC2CCCCO2)[C@H](O)[C@H]1O (stereo partly drawn) [Example 4d, 6-bromo-6-deoxy-4-O-tetrahydro-pyranyl-α-D-glucopyranosyl-(1→4)-α-D-glucopyranosyl fluoride]
